Parameters: species or system BALB/cAnNHsd mice
Settings: mouse, in vivo, ip

insulin: recombinant insulin (Humalog, Eli-Lilly), positive control in glucose tolerance test
blood glucose levels compared to the PBS and s-cal14.2b groups 30 min after administration: significantly lower
change of blood glucose levels compared to the PBS control group after five minutes: did not significantly change

Reference: publication PMC8391312 (Biomedicines, 2021)
